Reference: patent US8809348B2, “6-arylmethyl substituted pyrazolo[3,4-d]pyrimidines” (Boehringer Ingelheim International GmbH, priority 2003, dated 2014)
Counter-ions that a name gives are not always drawn.

System: not given
Experiment: not given
Conditions: not given
`Cc1ccccc1-n1ncc2c(=O)[nH]c(Cc3cccc(Cl)c3)nc21` (as salt: sodium) [Example 16, 6-(3-Chlorobenzyl)-1-(2-methylphenyl)-1,5-dihydro-4H-pyrazolo[3,4-d]pyrimidin-4-one] showed a melting point of 215 °C.
`Cc1ccccc1-n1ncc2c(=O)[nH]c(Cc3ccccn3)nc21` (as salt: sodium) [Example 17, 1-(2-Methylphenyl)-6-(2-pyridinylmethyl)-1,5-dihydro-4H-pyrazolo[3,4-d]pyrimidin-4-one] gave a melting point of 162 °C.
For `CCc1ccccc1-n1ncc2c(=O)[nH]c(Cc3cccc(Cl)c3)nc21` (as salt: sodium) [Example 18, 6-(3-Chlorobenzyl)-1-(2-ethylphenyl)-1,5-dihydro-4H-pyrazolo[3,4-d]pyrimidin-4-one], the melting point was 208 °C.
With `O=c1[nH]c(Cc2cccc(Cl)c2)nc2c1cnn2-c1ccccc1C(F)(F)F` (as salt: sodium) [Example 19, 6-(3-Chlorobenzyl)-1-(2-trifluoromethylphenyl)-1,5-dihydro-4H-pyrazolo[3,4-d]pyrimidin-4-one] the melting point was 152 °C.
Work on `O=c1[nH]c(Cc2cccc(Cl)c2)nc2c1cnn2-c1ccccc1F` (as salt: sodium) [Example 20, 6-(3-Chlorobenzyl)-1-(2-fluorophenyl)-1,5-dihydro-4H-pyrazolo[3,4-d]pyrimidin-4-one] yielded a melting point of 197 °C.
For `O=c1[nH]c(Cc2cccc(Cl)c2)nc2c1cnn2-c1ccccc1Cl` (as salt: sodium) [Example 21, 6-(3-Chlorobenzyl)-1-(2-chlorophenyl)-1,5-dihydro-4H-pyrazolo[3,4-d]pyrimidin-4-one], the melting point was 188 °C.
With `O=c1[nH]c(Cc2cccc(Cl)c2)nc2c1cnn2-c1ccccn1` (as salt: sodium) [Example 22, 6-(3-Chlorobenzyl)-1-(2-pyridinyl)-1,5-dihydro-4H-pyrazolo[3,4-d]pyrimidin-4-one] the melting point was 230 °C.
Work on `COc1ccccc1-n1ncc2c(=O)[nH]c(Cc3cccc(Cl)c3)nc21` (as salt: sodium) [Example 23, 6-(3-Chlorobenzyl)-1-(2-methoxyphenyl)-1,5-dihydro-4H-pyrazolo[3,4-d]pyrimidin-4-one] yielded a melting point of 196 °C.

Molecular target: T1, PDE9A (Homo sapiens, UniProt O76083)
T1 sequence (O76083 whole entry): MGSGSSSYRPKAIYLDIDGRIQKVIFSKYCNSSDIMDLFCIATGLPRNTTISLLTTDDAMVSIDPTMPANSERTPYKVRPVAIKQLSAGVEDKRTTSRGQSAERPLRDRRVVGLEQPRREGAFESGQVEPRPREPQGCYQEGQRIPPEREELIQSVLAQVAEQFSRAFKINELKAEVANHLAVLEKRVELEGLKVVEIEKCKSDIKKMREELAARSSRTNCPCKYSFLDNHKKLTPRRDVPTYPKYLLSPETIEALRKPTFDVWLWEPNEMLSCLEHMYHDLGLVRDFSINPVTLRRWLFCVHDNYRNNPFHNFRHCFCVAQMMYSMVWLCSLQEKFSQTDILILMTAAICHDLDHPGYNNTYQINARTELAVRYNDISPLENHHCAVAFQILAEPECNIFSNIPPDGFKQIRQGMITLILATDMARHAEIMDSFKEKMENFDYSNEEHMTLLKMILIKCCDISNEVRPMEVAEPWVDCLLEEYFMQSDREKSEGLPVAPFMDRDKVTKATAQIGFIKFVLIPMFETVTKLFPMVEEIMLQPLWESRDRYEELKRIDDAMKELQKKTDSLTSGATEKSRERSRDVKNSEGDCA
Experiment: not given
Conditions: concentrations of up to 100 μM; cited from earlier work
For `CC(C)Cn1c(=O)n(C)c(=O)c2[nH]cnc21` [IBMX], the “inhibition on the isolated enzyme” value is listed as “no inhibition”.
In the case of `CC(=O)Nc1ccc(-c2c[nH]c(=O)cn2)cc1` [SKF94120], the “inhibition on the isolated enzyme” value is listed as “no inhibition”.
In the case of `OCCN(CCO)c1nc(N2CCCCC2)c2nc(N(CCO)CCO)nc(N3CCCCC3)c2n1` [dipyridamole], the “inhibition on the isolated enzyme” value is given as “no inhibition”.
For `COc1ccc(C2CNC(=O)C2)cc1OC1CCCC1` (stereo not drawn) [rolipram], the “inhibition on the isolated enzyme” value is given as “no inhibition”.
In the case of `CCOC(=O)C1=C[C@]2(CC)CCCN3CCc4c(n1c1ccccc41)[C@@H]32` [vinpocetine], the “inhibition on the isolated enzyme” value is listed as “no inhibition”.

Molecular target: T2, Murine PDE9A (Mus musculus, UniProt O70628)
T2 sequence (O70628 1-534): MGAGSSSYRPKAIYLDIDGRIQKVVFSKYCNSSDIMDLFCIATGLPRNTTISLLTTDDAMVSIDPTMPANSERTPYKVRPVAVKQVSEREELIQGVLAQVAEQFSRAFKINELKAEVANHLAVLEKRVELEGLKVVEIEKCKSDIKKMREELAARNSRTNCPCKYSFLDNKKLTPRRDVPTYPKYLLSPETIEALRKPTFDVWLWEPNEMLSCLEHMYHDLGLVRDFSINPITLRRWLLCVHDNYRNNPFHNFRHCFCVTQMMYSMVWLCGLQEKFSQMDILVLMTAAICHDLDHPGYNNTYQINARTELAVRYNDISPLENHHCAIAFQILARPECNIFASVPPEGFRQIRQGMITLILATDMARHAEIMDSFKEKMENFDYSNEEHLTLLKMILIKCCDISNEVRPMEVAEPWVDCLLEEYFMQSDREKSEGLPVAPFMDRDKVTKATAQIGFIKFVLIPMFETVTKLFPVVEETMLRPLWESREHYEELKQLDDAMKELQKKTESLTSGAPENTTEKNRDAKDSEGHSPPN
Experiment: not given
Conditions: concentrations below 200 μM; cited from earlier work
In the case of `CC(C)Cn1c(=O)n(C)c(=O)c2[nH]cnc21` [IBMX], the “inhibition of murine PDE9A” value is given as “not inhibited”.

Molecular target: T1, PDE9A
Experiment: PDE inhibition: recombinant PDE9A scintillation proximity assay
Type: biochemical
Set-up: made in house; host or cells: Sf9 cells (pFASTBAC baculovirus expression system)
Conditions: inhibiting effect on PDE9A, recombinant enzyme expressed in Sf9 cells, [8-3H]cGMP substrate
Text: Recombinant PDE1C (GenBank/EMBL Accession Number: NM_005020, Loughney et al. J. Biol. Chem. 1996 271, 796-806), PDE2A (GenBank/EMBL Accession Number: NM_002599, Rosman et al. Gene 1997 191, 89-95), PDE3B (GenBank/EMBL Accession Number: NM_000922, Miki et al. Genomics 1996, 36, 476-485), PDE4B (GenBank/EMBL Accession Number: NM_002600, Obernolte et al. Gene. 1993, 129, 239-247), PDE5A (GenBank/EMBL Accession Number: NM_001083, Loughney et al. Gene 1998, 216, 139-147), PDE7B (GenBank/EMBL Accession Number: NM_018945, Hetman et al. Proc. Natl. Acad. Sci. U.S.A. 2000, 97, 472-476), PDE8A (GenBank/EMBL Accession Number: AF 056490, Fisher et al. Biochem. Biophys. Res. Commun. 1998 246, 570-577), PDE9A (Fisher et al., J. Biol. Chem., 1998, 273 (25): 15559-15564), E10A (GenBank/EMBL Accession Number: NM_06661, Fujishige et al. J Biol Chem. 1999, 274, 18438-45), PDE11A (GenBank/EMBL Accession Number: NM_016953, Fawcett et al. Proc. Natl. Acad. Sci. 2000, 97, 3702-3707) were expressed in Sf9 cells with the aid of the pFASTBAC baculovirus expression system (GibcoBRL).
The test substances are dissolved in 100% DMSO and serially diluted to determine their in vitro effect on PDE 9A. Typically, serial dilutions from 200 μM to 1.6 μM are prepared (resulting final concentrations in the assay: 4 μM to 0.032 μM). 2 μL portions of the diluted substance solutions are introduced into the wells of microtiter plates (Isoplate; Wallac Inc., Atlanta, Ga.). Then 50 μL of a dilution of the PDE9A preparation described above are added. The dilution of the PDE9A preparation is chosen so that less than 70% of the substrate is converted during the subsequent incubation (typical dilution: 1:10000; dilution buffer: 50 mM Tris/HCl pH 7.5, 8.3 mM MgCl2, 1.7 mM EDTA, 0.2% BSA). The substrate, [8-^3H] guanosine 3′,5′-cyclic phosphate (1 μCi/μL; Amersham Pharmacia Biotech., Piscataway, N.J.) is diluted 1:2000 with assay buffer (50 mM Tris/HCl pH 7.5, 8.3 mM MgCl2, 1.7 mM EDTA) to a concentration of 0.0005 μCi/μL. The enzyme reaction is finally started by adding 50 μL (0.025 μCi) of the diluted substrate. The assay mixtures are incubated at room temperature for 60 min and the reaction is stopped by adding 25 μl of a PDE9A inhibitor (e.g. the inhibitor from preparation example 1, final concentration 10 μM) dissolved in assay buffer. Immediately thereafter, 25 μL of a suspension containing 18 mg/mL Yttrium Scintillation Proximity Beads (Amersham Pharmacia Biotech., Piscataway, N.J.) are added. […] The plates are then measured for 30 s per well in a Microbeta scintillation counter (Wallac Inc., Atlanta, Ga.). IC50 values are determined from the graphical plot of the substance concentration versus the percentage inhibition. […]
Work on `Cc1cccc(-n2ncc3c(=O)[nH]c(Cc4cccc(Cl)c4)nc32)c1C` [Example 2, 6-(3-Chlorobenzyl)-1-(2,3-dimethylphenyl)-1,5-dihydropyrazolo[3,4-d]pyrimidin-4-one] yielded an IC50 of 50 nM.
For `O=c1[nH]c(Cc2cccc(Cl)c2)nc2c1cnn2-c1c(Cl)cccc1Cl` [Example 4, 6-(3-Chlorobenzyl)-1-(2,6-dichlorophenyl)-1,5-dihydropyrazolo[3,4-d]pyrimidin-4-one], the IC50 was 64 nM.
For `Cc1ccccc1-n1ncc2c(=O)[nH]c(Cc3ccccc3Br)nc21` [Example 9, 6-(2-Bromobenzyl)-1-(2-methylphenyl)-1,5-dihydropyrazolo[3,4-d]pyrimidin-4-one], the IC50 was under 30 nM.
In the case of `O=c1[nH]c(Cc2cccc(Cl)c2)nc2c1cnn2-c1ccccc1Cl` [Example 21, 6-(3-Chlorobenzyl)-1-(2-chlorophenyl)-1,5-dihydro-4H-pyrazolo[3,4-d]pyrimidin-4-one], the IC50 is reported as under 30 nM.
